These results are taken from BindingDB's records for doi:10.1021/jm034141y (Merck Research Laboratories, 2003).

pIC50: −log10 of the molar value.

The experiment is described as follows: In vitro inhibition of purified Carboxypeptidase B (CPB) by ECL assay.

In turn, `O=C(O)C(Cc1ccccc1)c1cnc[nH]1` (configuration not stated) [2-(1H-Imidazol-4-yl)-3-phenyl-propionic acid] showed a pIC50 of less than 4.00. The value for `Nc1ccc(CC(C(=O)O)c2cn(Cc3ccccc3)cn2)cn1` (configuration not stated) [3-(6-Amino-pyridin-3-yl)-2-(1-benzyl-1H-imidazol-4-yl)-propionic acid] was 7.68.
